The values below come from the METLIN SMRT retention time set (Domingo-Almenara et al. 2019).

SMILES strings stand for the structures.

The nature of this data set: gradient 5% acetonitrile 3 min, to 50% in 2 min, to 85% in 15 min, held 3 min, 100 µL/min. To be noted: column: Zorbax Extend-C18 2.1 x 50 mm; eluents: water / acetonitrile, 0.1% formic acid. In short, it runs like this:
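Retention times of pure standards were taken from adduct peaks that were selected by computer and manually inspected. Over 3 months, mixtures of ~100 molecules were run by HPLC–quadrupole time-of-flight mass spectrometry in positive and negative ionization mode. The Zorbax Extend-C18 column (2.1 × 50 mm, 1.8 μm) ran at 100 μL/min in water and acetonitrile, each containing 0.1% formic acid, with 40 μL dead volume and 900 μL dwell volume.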
The compound `COc1ccc(CC2c3cc(OC)c(OC)cc3CC[N+]2(C)C)cc1OC` (stereo unspecified) registered an RP-LC retention time of 693 s.
In turn, `Cc1ccc2ccc3ccc(C)nc3c2n1` gave an RP-LC retention time of 589 s.
The same measure for `CN(CC(=O)Nc1nnc(SCc2ccc(Cl)cc2Cl)s1)S(C)(=O)=O`: 874 s; for `COc1ccccc1CN1CN=C(Nc2nc(C)c3ccc(C)cc3n2)NC1`: 568 s; for `CCOC(=O)c1c(S(=O)(=O)NCc2ccc3c(c2)OCO3)n[nH]c1CC`: 718 s.
Then `O=C(CC1CCCC1)N1CCCCC1c1nncn1Cc1ccccc1` (stereo unspecified), with 890 s.
Then `CCC1Oc2ccc(S(=O)(=O)N3CCC(C(=O)Nc4ccc(C(C)C)cc4)CC3)cc2NC1=O` (stereo unspecified), with 1000 s; and `O=C(Cn1nc2c(N3CCCCCC3)nccn2c1=O)NC1CCCCC1`, with 681 s; and `CC(=O)N1c2ccc(S(=O)(=O)N3CCCC3)cc2CC1C(=O)NCCN(C)C1CCCCC1` (stereo unspecified), with 577 s.
The compound `O=C(c1ccco1)N1CCCC(c2ccnc(-c3ccccc3)n2)C1` (stereo unspecified) came in with an RP-LC retention time of 962 s.
Then `CC(C)(CSc1nnnn1-c1ccccc1)NS(=O)(=O)c1ccccc1`, with 862 s.
Then `COc1ccc(-c2nnc(-c3ccccc3)o2)cc1S(=O)(=O)N1CCC(C(=O)O)CC1`, with 774 s.
The same measure for `Cc1ccc(C(=O)N2CCCC2c2c(C)noc2C)cc1` (stereo unspecified): 760 s; for `CC(C)NC(=O)N1CCCN(Cc2cccs2)CC1`: 564 s.
`CC(=O)Nc1c(C)noc1/C=C/c1ccc(S(=O)(=O)N2CCC(C)CC2)s1` came in with an RP-LC retention time of 869 s.
Then `Cc1ccc(Oc2nccnc2N2CCCC(C(=O)NC(C)c3ccc(C)c(C)c3)C2)cc1` (stereo unspecified), with 1150 s.
Then `CC(=O)Nc1ccc(NC(=O)C2CCN(S(=O)(=O)c3ccc4c(c3)sc(=O)n4C)CC2)cc1`, with 686 s; and `Cc1[nH]c(C)c(S(=O)(=O)N2CCC(C(=O)Nc3ccc(F)cc3)CC2)c1C(=O)N1CCCC1`, with 710 s; and `CCCNC(=O)CN1CCN(Cc2ccccc2)C1=O`, with 675 s.
Then `Cc1cc(F)cc2c(=O)c3c([nH]c12)CCN(CC(=O)Nc1ccc(F)c(Cl)c1)C3`, with 664 s.
For the compound `CCCN1C(=O)COc2cc(-c3noc(C(=O)NCC4CCCO4)n3)ccc21` (stereo unspecified), the RP-LC retention time is 841 s.
Then `Cc1nc(-c2csc(S(=O)(=O)N3CCC(C(=O)NCC4CCCO4)CC3)c2)no1` (stereo unspecified), with 725 s; and `CCC(=O)N(CCC1CCOC(C)(C)C1)Cc1ccc(OC)cc1` (stereo unspecified), with 896 s.
`CC(C)OCCCNC(=O)CCc1c(-c2ccc(F)cc2)nc2ccccn12` had an RP-LC retention time of 622 s.
Then `COc1ccc(CCN2CCC(CNS(=O)(=O)c3cc(-c4cc(C)no4)cs3)CC2)cc1`, with 718 s; and `CCOc1ccc(CC(=O)N2CC(C(=O)NC)C3(CCCC3)C2)cc1OCC` (stereo unspecified), with 726 s; and `COc1ccc(-c2noc(C3CC(=O)N(c4ccc5c(c4)OCO5)C3)n2)c(OC)c1` (stereo unspecified), with 816 s.
Compound `Nc1cc(C2CCN(C(=O)Nc3ccc(Cl)cc3F)CC2)no1` displayed an RP-LC retention time of 717 s.
The same measure for `O=C(NCc1ccc(F)cc1)c1ccc2c(c1)nc1n2CCN(Cc2ccccc2)C1=O`: 775 s.
Consider `COCc1noc([C@@H]2CN(C(=O)CC3CCCC3)C[C@H]2CO)n1`, for which the RP-LC retention time was 670 s.
Then `O=C(NCCc1ccccc1)C1=Cc2ccccc2OC=C1`, with 1010 s; and `C=CC(=O)Nc1ccc2ncnc(Nc3ccc(OCc4cccc(F)c4)c(Cl)c3)c2c1`, with 825 s.
For `C=CCn1nnc(NCc2ccc(-c3cccc(Cl)c3C)o2)n1`, the RP-LC retention time was 1090 s.
The same measure for `Cc1nc(C(=O)N2CCCCCC2c2nnc(C)o2)co1` (stereo unspecified): 649 s; for `CC(=O)N1c2ccc(S(=O)(=O)N3CCCCC3)cc2CC1C(=O)NCCN(C)C1CCCCC1` (stereo unspecified): 655 s.
Then `CCn1cc(S(=O)(=O)NC2CCCC2)c2cccnc21`, with 808 s; and `CCOC(=O)C1CCC(CNC(=O)Nc2cc3c(cc2N2CCCC2)n(C)c(=O)n3C)CC1` (stereo unspecified), with 638 s; and `O=C(CN1CCc2[nH]c3c(F)c(Cl)ccc3c(=O)c2C1)Nc1ccc2c(c1)OCCO2`, with 643 s.
Then `CCN(CC)CCNc1ncnc2onc(-c3ccc(Cl)cc3)c12`, with 664 s; and `COc1ccc(-c2cn3cccnc3n2)cc1NC(=O)c1ccccc1F`, with 706 s; and `COc1ccc(Cl)cc1S(=O)(=O)N1CCC(n2cnnc2-c2ccccc2)CC1`, with 825 s.
`O=C(Cc1ccc(Cl)cc1)NCC(=O)Nc1nc2ccccc2[nH]1` showed an RP-LC retention time of 660 s.
The same measure for `Cc1nn2c(S(=O)(=O)N3CCSCC3)c(C(C)C)nc2s1`: 862 s; for `N#CCn1cccc(S(=O)(=O)N2CCCCCC2)c1=O`: 737 s; for `CC(C)N(CCC(=O)c1ccc2ccccc2c1)Cc1ccccc1`: 859 s.
The same measure for `Cc1cccc(CNS(=O)(=O)c2cc(-c3[nH]ncc3C(=O)N3CCCC3)oc2C)c1`: 744 s; for `COc1ccc(C)cc1NC(=O)C1CCCN(S(=O)(=O)c2c[nH]c(C(=O)N3CCCC3)c2)C1` (stereo unspecified): 824 s.
The same measure for `O=C(NC1CCN(c2cc(-c3cccs3)[nH]n2)C1)c1ccccc1Br` (stereo unspecified): 705 s; for `COc1ccccc1CNC(=O)CN1C(=O)C2CCCCN2c2ccc(S(=O)(=O)N(C)C)cc21` (stereo unspecified): 885 s; for `COC(=O)c1ccc(NC(=O)CN2CCc3[nH]c4c(C)c(Cl)ccc4c(=O)c3C2)cc1`: 569 s.
Turning to `Cc1cc(C)c2sc(NC(=O)C3=COCCO3)nc2c1`, the RP-LC retention time worked out at 895 s.
The same measure for `COc1ccc(Cc2nc3nccc(-c4cccnc4)n3n2)cc1`: 692 s.
Then `CC1=C(c2ccc(Cl)cc2)S(=O)(=O)N=C1N1CCCN(C(=O)C(C)C)CC1`, with 822 s; and `Cc1ccc(Nc2cc(-n3ccnc3)ncn2)cc1`, with 651 s.
`CCOC(=O)N1CCN(C(=O)CSc2nnc(COc3ccc(Cl)cc3)o2)CC1` displayed an RP-LC retention time of 799 s.
Then `Cn1c(=O)sc2cc(S(=O)(=O)N3CCC(C(=O)NCCCc4ccccc4)CC3)ccc21`, with 867 s.
The same measure for `CCOc1ccc(CNC(=O)c2cnc(N3CCSCC3)nc2N)cc1`: 716 s; for `O=S(=O)(NC1CCCCCC1)c1ccc(-c2nnc(C3CCCC3)o2)o1`: 1080 s.
Then `CC(COc1ccc(C(C)C)cc1)NC(=O)c1cccs1` (stereo unspecified), with 998 s.
`CCOC(=O)c1csc(NC(=O)c2ccc3c(c2)OCCO3)n1` gave an RP-LC retention time of 782 s.
The same measure for `CNC(=O)C1Cc2ccccc2CN1S(=O)(=O)c1ccc(OC)cc1` (stereo unspecified): 770 s.
Then `Cc1cc(N2CCCC2)nc(N2CCN(C(=O)c3ccccc3Br)CC2)n1`, with 579 s.
Then `CC(NC(=O)C1CCN(c2cncnc2N2CCCC2)CC1)c1ccccc1` (stereo unspecified), with 660 s.
`Cc1ccc(N2C=C(C(=O)N3CCOCC3)S(=O)(=O)c3ccc(Cl)cc32)cc1F` gave an RP-LC retention time of 886 s.
The same measure for `COc1cc([C@@H]2c3cc4c(cc3[C@H](O)[C@@H](CO)[C@@H]2C(=O)N2CCN(C(C)C)CC2)OCO4)cc(OC)c1OC`: 608 s; for `CCn1cnc(S(=O)(=O)N2CCC(C(=O)Nc3ccc(OC)cc3)CC2)c1`: 666 s; for `COc1cccc(S(=O)(=O)N2CC(n3ccnc3)C2)c1`: 601 s.
Then `O=C(C1=CN(c2ccccc2F)c2cc(F)ccc2S1(=O)=O)N1CCOCC1`, with 740 s.
The same measure for `Cc1cc(NC(=O)c2cn(-c3ccc(C#N)cc3)cn2)ccc1Br`: 1020 s.
For the compound `CCCn1cc(S(=O)(=O)NCc2ccccc2C(F)(F)F)c2cccnc21`, the RP-LC retention time turned out to be 988 s.
On to `Cc1cnc(-c2cccnc2)n1C1CCN(S(=O)(=O)c2cccnc2)C1` (stereo unspecified), for which the RP-LC retention time amounted to 575 s.
With `Cc1nc(Cn2cccc2C(=O)Nc2ccc(Br)c(C)c2)no1`, the RP-LC retention time came to 995 s.
The compound `Cc1ccc(C)c(CNC(=O)CN2CCN(Cc3ccc(F)cc3)C2=O)c1` showed an RP-LC retention time of 862 s.
Take `CC(CCNC(=O)c1cc(S(=O)(=O)N2CCCCC2)ccc1Cl)N1CCCC1` (stereo unspecified): the RP-LC retention time is 643 s.
The same measure for `O=C(c1cc(-c2ccco2)on1)N1CCC(Oc2nc3ccccc3s2)CC1`: 1030 s; for `CN(CCc1noc(COc2ccc(Cl)cc2)n1)C(=O)Nc1ccc(F)cc1`: 934 s; for `CCOC(=O)CNc1ncnc2nc[nH]c12`: 513 s.
Then `CCOC(=O)Cc1ccc(NC(=O)NC2CCN(c3ccc(F)cc3)C2=O)cc1` (stereo unspecified), with 812 s; and `CCC(=O)Nc1ccc(OCc2cc(C(=O)NC3CCC(C)CC3)no2)cc1` (stereo unspecified), with 601 s.
In turn, `CCOc1ccc(/C=C/C(=O)Nc2nc(-c3ccc4c(c3)NC(=O)C(C)O4)c(C)s2)cc1OC` (stereo unspecified) showed an RP-LC retention time of 980 s.
For `CCOc1ccccc1-c1nc(C2CC(=O)N(c3ccc(C)cc3)C2)no1` (stereo unspecified), the RP-LC retention time is 1090 s.
